Counter-ions that a name gives are not always drawn.
Assays:
Assay type in all cases: physicochemical
[1] = Hausner ratio (tapped density / poured (bulk) density)
Text: These properties enable improve tablet density uniformity, weight variation, homogeneity, die fill characteristics, dimensional control and ejection characteristics.

[2] = Polymorphic stability on exposure to humidity; details: 100% relative humidity for at least a few moths
Text: Form Lambda doesn't convert to another polymorph when exposed to humidity.

[3] = Chemical and polymorphic stability on exposure to heating and mechanical pressure; details: when exposed to heating and to mechanical pressure; hydrochloride
[4] = Compressibility: pressing samples with 1 ton for 60 minutes; details: for appearance of palettes after pressing: pressed with 1 ton for 60 minutes
Wettability = assay: Wettability

| Hausner ratio (ratio between tapped density and poured (bulk) density) [1] | conversion to another polymorph when exposed to humidity [2] | chemical and polymorphic stability [3] | compressibility ([4]; API pressed into a palette) | degree of wettability (Wettability) | SMILES | appearance of palettes after pressing [4] |
| --- | --- | --- | --- | --- | --- | --- |
| favorable Hausner ratio | remains unchanged | – | – | – | N#Cc1ccc2[nH]cc(CCCCN3CCN(c4ccc5oc(C(N)=O)cc5c4)CC3)c2c1 [Form Lambda, Vilazodone hydrochloride] | – |
| – | – | chemically and polymorphically stable | excellent compressibility | enhanced degree of wettability | N#Cc1ccc2[nH]cc(CCCCN3CCN(c4ccc5oc(C(N)=O)cc5c4)CC3)c2c1 [Form Alpha, Vilazodone hydrochloride] | high structural order and shape without visible lamination on the surface or breaking of the palettes |
| – | – | high chemical and polymorphic stability | – | – | N#Cc1ccc2[nH]cc(CCCCN3CCN(c4ccc5oc(C(N)=O)cc5c4)CC3)c2c1 [Form Mu, Vilazodone hydrochloride] | high structural order and shape without visible lamination on the surface or breaking of the palettes |
